From patent US12697326B2, “Methods of treating hepatic encephalopathy” (SALIX PHARMACEUTICALS, INC., priority 2008, dated 2026)

What was measured:
subjects with HE = assay: Treatment-emergent adverse events, second study; assay type: in vivo, human
Description: At the time of this interim analysis, TEAEs were reported in 230 subjects (86.5%). The most common TEAEs (e.g., in ≥10% of total subjects) experienced by subjects were the following: peripheral edema (15.8%); urinary tract infection and nausea (12.8% each); and abdominal pain and ascites (10.5% each).
Treatment-emergent SAEs were experienced by 47.4% of subjects.

in vitro = conditions: human, in vivo

For `CO[C@H]1/C=C/O[C@@]2(C)Oc3c(C)c(O)c4c(O)c(c5c(nc6cc(C)ccn65)c4c3C2=O)NC(=O)/C(C)=C\C=C\[C@H](C)[C@H](O)[C@@H](C)[C@@H](O)[C@@H](C)[C@H](OC(C)=O)[C@@H]1C` [Rifaximin], the “subjects experiencing at least 1 TEAE judged to be severe” value (subjects with HE) was 40.2%, the “subjects with treatment-emergent SAEs” value (subjects with HE) was 47.4% and the “subjects with HE counted for the safety analyses” value (subjects with HE; 57 subjects) was 21.4%. For the same compound, the “incidence of TEAEs considered related to study drug” value (subjects with HE; continuing rifaximin group) was 7.1%, the “TEAE abdominal pain, subjects” value (subjects with HE; interim analysis) was 10.5% and the “TEAE ascites, subjects” value (subjects with HE; interim analysis) was 10.5%. For the same compound, the “TEAE nausea, subjects” value (subjects with HE; interim analysis) was 12.8%, the “TEAE peripheral edema, subjects” value (subjects with HE; interim analysis) was 15.8% and the “TEAE urinary tract infection, subjects” value (subjects with HE; interim analysis) was 12.8%. The “subjects with TEAEs” value (subjects with HE; interim analysis, 230 subjects) was 86.5%, the “incidence of TEAEs considered related to study drug” value (subjects with HE; new rifaximin group) was 7.7% and the fraction unbound (in vitro) was 0.447.
